{"source": "paper PMC6132360", "about": "(Clinical and Translational Science, 2018)", "key": {"[1]": {"system": "5‐AR types 1 and 2", "experiment": "Effect of dutasteride on in vitro testosterone metabolism in human hepatocytes", "type": "cell-based", "details": "200 nM dutasteride with 50 μM testosterone, 60 minutes; for change in metabolite formation/levels with dutasteride co‐treatment: human hepatocytes"}, "[2]": {"details": "for AUC0‐24h at T800, fold higher than with T200: 800 mg vs 200 mg oral testosterone"}, "[3]": {"target": "T1, UGT2B17 (Homo sapiens, UniProt O75795)", "T1 sequence (O75795 24-530)": "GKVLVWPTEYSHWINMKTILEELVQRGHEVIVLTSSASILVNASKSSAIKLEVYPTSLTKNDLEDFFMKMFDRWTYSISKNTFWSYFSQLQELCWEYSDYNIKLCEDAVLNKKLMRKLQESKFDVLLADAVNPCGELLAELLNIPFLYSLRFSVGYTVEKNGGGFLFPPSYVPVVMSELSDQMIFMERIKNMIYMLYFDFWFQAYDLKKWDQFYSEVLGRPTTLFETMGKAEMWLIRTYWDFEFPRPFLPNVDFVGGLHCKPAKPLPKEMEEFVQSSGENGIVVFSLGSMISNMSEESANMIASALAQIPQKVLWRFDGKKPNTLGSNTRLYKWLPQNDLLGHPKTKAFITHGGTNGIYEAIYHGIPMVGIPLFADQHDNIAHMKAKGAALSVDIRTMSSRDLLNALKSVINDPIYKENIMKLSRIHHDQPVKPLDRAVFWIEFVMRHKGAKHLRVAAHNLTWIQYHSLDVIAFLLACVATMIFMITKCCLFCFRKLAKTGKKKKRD", "type": "in vitro ADME", "details": "scaled by absolute UGT2B abundance in the intestine"}, "[4]": {"target": "UGT2B7 (Homo sapiens, UniProt P16662)", "sequence (P16662 24-529)": "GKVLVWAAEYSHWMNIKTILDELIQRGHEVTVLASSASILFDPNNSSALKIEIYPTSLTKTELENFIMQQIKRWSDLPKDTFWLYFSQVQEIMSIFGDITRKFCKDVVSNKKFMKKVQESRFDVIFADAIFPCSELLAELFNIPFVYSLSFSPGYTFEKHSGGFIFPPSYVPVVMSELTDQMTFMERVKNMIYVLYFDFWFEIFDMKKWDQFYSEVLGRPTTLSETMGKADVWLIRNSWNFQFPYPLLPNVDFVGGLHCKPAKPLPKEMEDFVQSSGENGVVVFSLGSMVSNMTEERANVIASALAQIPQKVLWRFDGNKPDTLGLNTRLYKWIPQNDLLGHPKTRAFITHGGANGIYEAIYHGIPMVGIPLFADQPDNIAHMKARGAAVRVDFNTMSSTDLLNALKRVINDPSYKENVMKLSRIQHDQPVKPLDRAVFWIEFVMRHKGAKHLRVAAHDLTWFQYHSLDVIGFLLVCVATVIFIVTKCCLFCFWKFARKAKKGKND", "details": "scaled by absolute UGT2B abundance in the liver"}, "[5]": {"system": "human hepatocytes", "experiment": "In vitro metabolite formation from testosterone in primary human hepatocyte", "type": "in vitro ADME"}, "[6]": {"details": "oral; cited from earlier work"}, "[7]": {"system": "testosterone production", "details": "normal men, single injection 300 μg/kg subcutaneous; cited from earlier work"}}, "note": "Like-named read-outs stand apart in the source and are kept apart here.", "data": [{"compound": "C[C@]12CC[C@H]3[C@@H](C[C@@H](O)C4=CC(=O)CC[C@@]43C)[C@@H]1CC[C@@H]2O", "note": "[6β‐OH‐T, 6β‐hydroxytestosterone]", "values": [{"measurement": "change in metabolite formation/levels with dutasteride co‐treatment", "setting": "[1]", "result": "significant decreases"}, {"measurement": "detection in serum", "setting": "[2]; after oral testosterone", "result": "only detectable in a few samples"}]}, {"compound": "C[C@]12CC[C@@H](O)C[C@@H]1CC[C@@H]1[C@@H]2CC[C@]2(C)C(=O)CC[C@@H]12", "note": "[A, androsterone]", "values": [{"measurement": "change in metabolite formation/levels with dutasteride co‐treatment", "setting": "[1]", "result": "significant decreases"}, {"measurement": "predicted contribution of UGT2B17 to intestinal glucuronidation", "setting": "[3]", "result": 70, "unit": "%"}, {"measurement": "predicted contribution of UGT2B7 to hepatic glucuronidation", "setting": "[4]", "result": 100, "unit": "%"}]}, {"compound": "C[C@]12CCC(=O)C=C1CC[C@@H]1[C@@H]2CC[C@]2(C)C(=O)CC[C@@H]12", "note": "[AED, androstenedione]", "values": [{"measurement": "change in metabolite formation/levels with dutasteride co‐treatment", "setting": "[1]", "result": "No significant changes"}, {"measurement": "in vitro formation from testosterone", "setting": "[5]", "result": 46, "unit": "%"}, {"measurement": "AUC0‐24h at T800, fold higher than with T200", "setting": "[2]", "result": 4.2, "unit": "fold"}, {"measurement": "circulating levels higher in T200+D and T800+D as compared with testosterone alone", "setting": "[2]", "result": 5.7, "unit": "fold"}, {"measurement": "Tmax", "setting": "[2]; male, human, in vivo, 200 mg, T200", "result": 2, "unit": "h"}, {"measurement": "Tmax", "setting": "[2]; male, human, in vivo, T200+D", "result": 2, "unit": "h"}]}, {"compound": "C[C@]12CCC(=O)C[C@@H]1CC[C@@H]1[C@@H]2CC[C@]2(C)[C@@H](O)CC[C@@H]12", "note": "[DHT, dihydrotestosterone]", "values": [{"measurement": "change in metabolite formation/levels with dutasteride co‐treatment", "setting": "[1]", "result": "significant decreases"}, {"measurement": "AUC0‐24h at T800, fold higher than with T200", "setting": "[2]", "result": 3.3, "unit": "fold"}, {"measurement": "Tmax", "setting": "[2]; male, human, in vivo, 800 mg, T800", "result": 2, "unit": "h"}, {"measurement": "AUC(0-t)", "setting": "[2]; male, human, in vivo, AUC0–24h, T800+D, average, n = 7", "result": 0.0266, "unit": "µM·h"}, {"measurement": "Tmax", "setting": "[2]; male, human, in vivo, T200+D", "result": 4, "unit": "h"}]}, {"compound": "C[C@]12CC[C@@H](O)C[C@H]1CC[C@@H]1[C@@H]2CC[C@]2(C)C(=O)CC[C@@H]12", "note": "[Etio, etiocholanolone]", "values": [{"measurement": "predicted contribution of UGT2B17 to intestinal glucuronidation", "setting": "[3]", "result": 90, "unit": "%"}, {"measurement": "circulating levels higher in T200+D and T800+D as compared with testosterone alone", "setting": "[2]", "result": 2.3, "unit": "fold"}]}, {"compound": "C[C@]12CC[C@H]3[C@@H](CCC4=CC(=O)CC[C@@]43C)[C@@H]1CC[C@@H]2O", "note": "[Testosterone, reference compound]", "values": [{"measurement": "predicted contribution of UGT2B17 to intestinal glucuronidation", "setting": "[3]", "result": 100, "unit": "%"}, {"measurement": "bioavailability", "setting": "[6]", "result": "2–8%"}]}, {"compound": "C[C@]12C=CC(=O)N[C@@H]1CC[C@@H]1[C@@H]2CC[C@]2(C)[C@@H](C(=O)Nc3cc(C(F)(F)F)ccc3C(F)(F)F)CC[C@@H]12", "note": "[dutasteride, reference compound]", "values": [{"measurement": "inhibition of 5‐AR types 1 and 2 mediated metabolism of testosterone", "setting": "[1]", "result": "complete inhibition"}]}, {"compound": "acyline", "values": [{"measurement": "duration of suppression of testosterone production", "setting": "[7]", "result": "≥ 15", "unit": "days"}]}]}
